In test [1] the test system is cancer cell lines shown in Table 4. The test can be described thus: Test for inhibition of activity of GPX4 1 (cell growth inhibition under a GPX4 inhibitor). The conditions noted are these: cancer cell having a suppressed function of SMARCA4. The test is classed as cell-based, human. Here is the method: In each cancer cell line, cell growth inhibition activity under a GPX4 inhibitor was evaluated. As the GPX4 inhibitor, ML210 (CAS No: 1360705-96-9) which is a low-molecular GPX4 inhibitor reported to be a compound inhibiting the enzymatic activity of GPX4:
These compounds were each added, and each cell line was seeded at 100 μL/well so as to attain the seeding density (2) shown in Table 5 below. The cells were cultured for 7 days, the intracellular ATP which is a marker for cell survival was then measured using Cell Titer-Glo 2.0 Cell Viability Assay (manufactured by Promega Corporation), and the cell survival rate was calculated, where the intracellular ATP level in each cancer cell line given only a solvent (dimethyl sulfoxide (DMSO) or water) for the compound and cultured for 7 days was defined as 100%.

The next test relates to SK-HEP-1 tumor. Kind of test: Test for drug efficacy of ML210 on SK-HEP-1 tumor-bearing mouse. The test is classed as in vivo, BALB/c-nu/nu mice. The note with it: SK-HEP-1 tumor-bearing mice; oral, once a day, 100 mg/kg from day 11; measured days 11, 14 and 18; versus vehicle; FIG. 9. Here is the method:
For examining the efficacy of the GPX4 inhibitor on SWI/SNF complex factor-deficient cancer in vivo, a test was conducted in which ML210 was administered to mice in which SK-HEP-1 (human cancer cell line suppressing a function of SMARCA4) was transplanted (SK-HEP-1 tumor-bearing mice). […]
Subsequently, to mice (SK-HEP-1 tumor-bearing mice) for which the engraftment of the tumor (cancer cell) had been confirmed, a dosing liquid obtained by suspending ML210 at a predetermined concentration in a mixed liquid of 10% dimethyl sulfoxide (manufactured by Wako Company, product code: 043-07216), 10% Cremophor (manufactured by Sigma-Aldrich Co. LLC, product code: C5135), 15% polyethylene glycol 400 (manufactured by Wako Company, product code: 161-09065) and 15% hydroxypropyl-β-cyclodextrin (manufactured by Nihon Shokuhin Kako Co., Ltd., product code: 7585-39-9) was orally administered at a predetermined dose (20 mL/kg) once a day to a daily dosage of 100 mg/kg upon the confirmation of the implantation. The day of inoculation of SK-HEP-1 was defined as day 0, administration of ML210 was started on day 11, and the volume of the tumor was measured on days 11, 14 and 18. The minor diameter and the major diameter of the tumor were measured using an electronic caliper (manufactured by Mitutoyo Corporation, product code: CD-15AX), and the volume of the tumor was calculated by the […].

Consider two compounds from patent publication US12529701B2, “Method for predicting sensitivity of cancer cell to GPX4 inhibitor” (Chugai Seiyaku Kabushiki Kaisha, priority 2019, dated 2026).

For the compound `Cc1onc(C(=O)N2CCN(C(c3ccc(Cl)cc3)c3ccc(Cl)cc3)CC2)c1[N+](=O)[O-]` [ML210], the “cell death and cell growth suppression” value in test [1] is recorded as “markedly suppress cell growth”. The “volume of the tumor” value in the test with SK-HEP-1 tumor is recorded as “an increase in volume of the tumor was suppressed as compared to the group given the vehicle”.

`COC(=O)c1ccc([C@H]2c3[nH]c4ccccc4c3C[C@H](C(=O)OC)N2C(=O)CCl)cc1` [RSL3]: the “cell death and cell growth suppression” value in test [1] was “markedly suppress cell growth”.
